Among the data in patent publication US6933319B2, “Resorcinol derivatives” (Pfizer Inc., priority 1999, dated 2005) are IC50 values, retold here.

Broadly, the IC50 is the midpoint of a concentration-inhibition curve. Read a low IC50 as greater potency in that assay.

SMILES strings stand for the structures.

This experiment addresses T1, human tyrosinase (Homo sapiens, UniProt P14679).
T1 construct: endogenous in cells; host or cells: SKMEL 188 human melanoma cell line (lysate)
T1 sequence (P14679 19-529): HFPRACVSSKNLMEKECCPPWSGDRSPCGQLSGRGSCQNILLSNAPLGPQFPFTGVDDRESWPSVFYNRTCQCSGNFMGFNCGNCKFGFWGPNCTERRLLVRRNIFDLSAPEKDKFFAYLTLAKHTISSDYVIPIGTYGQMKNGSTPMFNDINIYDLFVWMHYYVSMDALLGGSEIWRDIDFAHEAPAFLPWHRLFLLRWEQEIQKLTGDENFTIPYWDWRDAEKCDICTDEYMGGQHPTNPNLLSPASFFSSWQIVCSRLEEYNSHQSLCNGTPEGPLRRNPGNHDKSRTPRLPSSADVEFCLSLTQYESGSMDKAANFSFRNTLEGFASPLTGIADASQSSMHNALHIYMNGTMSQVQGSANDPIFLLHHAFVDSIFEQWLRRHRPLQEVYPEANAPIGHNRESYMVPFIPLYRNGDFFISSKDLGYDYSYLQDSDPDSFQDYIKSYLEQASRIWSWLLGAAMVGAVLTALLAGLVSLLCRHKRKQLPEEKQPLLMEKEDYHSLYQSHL
The experiment can be described thus: Tyrosinase (DOPA Oxidase) Assay Using Cell Lysate. The experiment is classed as biochemical. To be noted: SKMEL 188 human melanoma cell lysate; L-DOPA 100 μg/ml; incubated 8 hrs; read at 405 nm. How it is done: 1. Tyrosinase (DOPA Oxidase) Assay Using Cell Lysate:
Human melanoma cell line, SKMEL 188 (licensed from Memorial Sloan-Kettering), is used in the cell lysate assay and the screen. In the assay, compounds and L-dihydroxyphenylalanine (L-DOPA) (100 μg/ml) are incubated with the cell lysates containing human tyrosinase for 8 hrs before the plates are read at 405 nm. Potency of the compounds in DOPA oxidase assay is correlated very well with that in tyrosine hydroxylase assay using ^3H-tyrosine as a substrate.

In the case of `ON=C1CCC(c2ccc(O)cc2O)C1` (racemic) [Example 23, (±)-3-(2,4-Dihydroxyphenyl)cyclopentanone oxime], the IC50 is around 2000 nM.
